These results are taken from patent US20260184712A1, “Heterocyclic Compounds as ENT Inhibitors and Compounds for Use in the Treatment of Cancers” (iTeos Belgium SA, priority 2022, published 2026).

Structures are written as SMILES. A value given as a limit tells only on which side of the number the result lay.

The first test concerns the target T1, human ENT1 (Homo sapiens, UniProt Q99808).
T1 construct: JAR cells expressing ENT1 were purchased from ATCC; host or cells: JAR cells
T1 sequence (Q99808 1-456): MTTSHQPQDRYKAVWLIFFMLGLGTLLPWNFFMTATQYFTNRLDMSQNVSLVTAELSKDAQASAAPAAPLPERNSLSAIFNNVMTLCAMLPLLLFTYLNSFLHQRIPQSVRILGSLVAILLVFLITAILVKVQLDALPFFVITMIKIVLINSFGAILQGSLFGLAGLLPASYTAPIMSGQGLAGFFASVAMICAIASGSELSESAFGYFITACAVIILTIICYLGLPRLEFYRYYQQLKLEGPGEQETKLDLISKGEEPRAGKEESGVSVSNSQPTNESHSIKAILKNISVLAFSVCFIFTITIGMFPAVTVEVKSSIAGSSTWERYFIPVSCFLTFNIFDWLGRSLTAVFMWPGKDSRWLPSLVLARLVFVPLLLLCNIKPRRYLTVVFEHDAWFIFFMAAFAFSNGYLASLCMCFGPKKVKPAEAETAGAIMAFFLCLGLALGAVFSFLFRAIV
The test is described as follows: ENT1 binding assay (competition with Sahenta-DY647 on JAR cells). Particulars: Binding Assay IC50, competition with SAHENTA-DY647 binding; IC50 categorized. The protocol:
Compounds of the present disclosure were assayed to show ability to bind to human ENT1. The assay is a competition between a compound of interest and Sahenta-DY647, an ENT1 inhibitor that emits fluorescence (Ex=630 nm, Em=670 nm). By measuring the fluorescence at the end of the assay, one can assess the binding potency of the compounds tested. The compounds of the present disclosure were tested and compared to known ENT inhibitors, dilazep and NBMPR:
JAR cells expressing ENT1 were purchased from ATCC® (HTB-144TM). Cells were cultured in RPMI 1640 medium (LONZA®, #BE12-702F/U1) supplemented with 10% FBS (GIBCO®, #10270-106), 10 mM Hepes (LONZA®, #BE17-737E), 1 mM Sodium Pyruvate (LONZA®, #BE13-115E), and 2% Penicillin/Streptomycin (LONZA®, #DE17-603E) at 37° C. and 5% CO2.
The assay was conducted with the following buffer on the day of the assay: HBSS (LONZA®, #LO-527F) supplemented with 10 mM Hepes (LONZA®, #BE17-737E) and 0.1% BSA (Miltenyi®, #130-091-376).
JAR cells were resuspended in the described buffer. The compounds of interest and Sahenta-DY647 were diluted 200× with the described buffer.
A total of 50,000 cells were pre-incubated for 30 min at 4° C. with the compounds of the present disclosure before adding the corresponding amount of Sahenta-DY647 (100 nM) to the minimal concentration at Bmax and incubating for an additional 30 min at 4° C. The total volume of the reaction was 100 μL (50 μL of cells, 25 μL of the compounds of the present disclosure, and 25 μL of Sahenta-DY647) in a U-bottom 96 well plate (Greiner®, #650-180). The plates were washed 2× by centrifugation (4 min, 400 rcf at 4° C.) in the same buffer. Cells were re-suspended in 70 μL of the buffer and 50 μL was transferred to a Black 384 Optiplate (PerkinElmer®, #6007279). Fluorescence (Ex=630 nm, Em=670 nm) was acquired on a Spectramax i3x (Molecular Devices®).
Dose-response data from the compounds were analyzed with Graphpad Prism 9.1.1@software, using nonlinear regression applied to a sigmoidal dose-response model and the following equation:
Y=Bottom+(Top-Bottom)/(1+10^((LogIC50−X)*HillSlope)), with a shared bottom and top between the test reagent and dipyridamole.
Data from multiple experiments were compiled by taking the average pIC50 value for the reagent in question±the standard deviation (s.d.) and expressing it as an average IC50 value in nM.
The inhibitory effect of the test compound was expressed as a percentage of the inhibition of SAHENTA-DY647 binding.
As for `C[C@H]1O[C@@H](n2cnc3c(SCc4ccccc4)ncnc32)[C@H](O)[C@@H]1O` [Compound 224], the IC50 was > 0.5 µM.

Staying with this test, now noted: competition with SAHENTA-DY647 binding; IC50 categorized; read-out: Binding Assay IC50.
As to `C[C@H]1O[C@@H](n2c(N[C@H]3CC[C@](C)(O)CC3)nc3c(N4CCc5ccc([N+](=O)[O-])cc5C4)ncnc32)[C@H](O)[C@@H]1O` [Compound 144], the IC50 fell in the range of 0.001 to 0.02 µM.

Regarding `COCCCNc1nc2c(N3CCc4ccc([N+](=O)[O-])cc4C3)ncnc2n1[C@@H]1O[C@H](C)[C@@H](O)[C@H]1O` [Compound 146], the concentration for half-maximal inhibition (IC50) is 0.001 to 0.02 µM.

`C[C@H]1O[C@@H](n2c(NC3CCOCC3)nc3c(N4CCc5ccc([N+](=O)[O-])cc5C4)ncnc32)[C@H](O)[C@@H]1O` [Compound 148]: the 50% inhibitory concentration (IC50) was in the range of 0.001 to 0.02 µM.

`CC(C)Nc1nc2c(N3CCc4ccc([N+](=O)[O-])cc4C3)ncnc2n1[C@@H]1O[C@H](C)[C@@H](O)[C@H]1O` [Compound 149]: the IC50 fell in the range of 0.001 to 0.02 µM.

Take `C[C@H]1O[C@@H](n2c(NCCCO)nc3c(N4CCc5ccc(C#N)cc5C4)ncnc32)[C@H](O)[C@@H]1O` [Compound 155]: the half-inhibitory concentration (IC50) was in the range of 0.001 to 0.02 µM.

For `COCCCNc1nc2c(N3CCc4ccc(C#N)cc4C3)ncnc2n1[C@@H]1O[C@H](C)[C@@H](O)[C@H]1O` [Compound 160], the IC50 was 0.001 to 0.02 µM.

As for `C[C@H]1O[C@@H](n2cc(C(F)(F)F)c3c(SCc4ccc([N+](=O)[O-])cc4)ncnc32)[C@H](O)[C@@H]1O` [Compound 163], the IC50 lay in the range of 0.02 to 0.5 µM.

`C[C@H]1O[C@@H](n2c(NC3CC3)nc3c(N4CCc5ccc(C#N)cc5C4)ncnc32)[C@H](O)[C@@H]1O` [Compound 164]: the IC50 was in the range of 0.02 to 0.5 µM.

As for `C[C@H]1O[C@@H](n2c(NCCO)nc3c(N4CCc5ccc(C#N)cc5C4)ncnc32)[C@H](O)[C@@H]1O` [Compound 167], the concentration for half-maximal inhibition (IC50) is 0.02 to 0.5 µM.

As to `CCOC(=O)/C=C/[C@H]1O[C@@H](n2cnc3c(OCc4ccc([N+](=O)[O-])cc4)ncnc32)[C@H](O)[C@@H]1O` [Compound 169], the half-maximal inhibitory concentration (IC50) was 0.02 to 0.5 µM.

On to `C[C@H]1O[C@@H](n2c(NC3CCOCC3)nc3c(N4CCc5ccccc5C4)ncnc32)[C@H](O)[C@@H]1O` [Compound 170], for which the IC50 is 0.02 to 0.5 µM.

Regarding `C[C@H]1O[C@@H](n2c(N[C@H]3CC[C@H](O)CC3)nc3c(N4CCc5ccccc5C4)ncnc32)[C@H](O)[C@@H]1O` [Compound 171], the 50% inhibitory concentration (IC50) was 0.02 to 0.5 µM.

Turning to `C[C@H]1O[C@@H](n2c(NC3CCS(=O)(=O)CC3)nc3c(N4CCc5ccccc5C4)ncnc32)[C@H](O)[C@@H]1O` [Compound 181], the IC50 lay within 0.02 to 0.5 µM.

As to `O=[N+]([O-])c1ccc(COc2ncnc3c2ncn3[C@@H]2O[C@H](COCCO)[C@@H](O)[C@H]2O)cc1` [Compound 191], the IC50 is 0.02 to 0.5 µM.

Consider `C[C@H]1O[C@@H](n2cnc3c(C4=Cc5cc([N+](=O)[O-])ccc5CC4)ncnc32)[C@H](O)[C@@H]1O` [Compound 192], for which the IC50 was in the range of 0.02 to 0.5 µM.

With `C[C@H]1O[C@@H](n2c(N[C@H]3CC[C@@H](O)CC3)nc3c(N4CCc5ccccc5C4)ncnc32)[C@H](O)[C@@H]1O` [Compound 195], the half-inhibitory concentration (IC50) lay within 0.02 to 0.5 µM.

`C[C@H]1O[C@@H](n2ccc3c(SCc4ccc([N+](=O)[O-])cc4)ncnc32)[C@H](O)[C@@H]1O` [Compound 197]: the IC50 lay within 0.02 to 0.5 µM.

`CCNc1nc2c(N3CCc4ccc(C#N)cc4C3)ncnc2n1[C@@H]1O[C@H](C)[C@@H](O)[C@H]1O` [Compound 198]: the concentration for half-maximal inhibition (IC50) is 0.02 to 0.5 µM.

Consider `C[C@H]1O[C@@H](n2cnc3c(OCc4ccc(F)c(F)c4)ncnc32)[C@H](O)[C@@H]1O` [Compound 201], for which the IC50 was in the range of 0.02 to 0.5 µM.

Regarding `C[C@H]1O[C@@H](n2cnc3c(OCc4ccc(F)cc4)ncnc32)[C@H](O)[C@@H]1O` [Compound 202], the IC50 was in the range of 0.02 to 0.5 µM.

Consider `C[C@H]1O[C@@H](n2cnc3c(OCc4ccc(C(F)(F)F)cc4)ncnc32)[C@H](O)[C@@H]1O` [Compound 204], for which the IC50 was in the range of 0.02 to 0.5 µM.

On to `C[C@H]1O[C@@H](n2cnc3c(OCc4ccc([N+](=O)[O-])nc4)ncnc32)[C@H](O)[C@@H]1O` [Compound 205], for which the IC50 lay within 0.02 to 0.5 µM.

Consider `C[C@H]1O[C@@H](n2cnc3c(OCc4ccc(C5CC5)cc4)ncnc32)[C@H](O)[C@@H]1O` [Compound 206], for which the IC50 fell in the range of 0.02 to 0.5 µM.

Regarding `C[C@H]1O[C@@H](n2cnc3c(SCc4ccc(OCC(F)(F)F)cc4)ncnc32)[C@H](O)[C@@H]1O` [Compound 207], the IC50 was 0.02 to 0.5 µM.

As to `C[C@H]1O[C@@H](n2c(-c3cn[nH]c3)nc3c(OCc4ccc([N+](=O)[O-])cc4)ncnc32)[C@H](O)[C@@H]1O` [Compound 208], the IC50 was 0.02 to 0.5 µM.

In the case of `C[C@H]1O[C@@H](n2cnc3c(N4CC(c5ccc([N+](=O)[O-])cc5)C4)ncnc32)[C@H](O)[C@@H]1O` [Compound 209], the IC50 fell in the range of 0.02 to 0.5 µM.

`C[C@H]1O[C@@H](n2cnc3c(CCc4ccc([N+](=O)[O-])cc4)ncnc32)[C@H](O)[C@@H]1O` [Compound 210]: the IC50 lay in the range of 0.02 to 0.5 µM.

Turning to `Cc1ccc(COc2ncnc3c2ncn3[C@@H]2O[C@H](C)[C@@H](O)[C@H]2O)cc1` [Compound 211], the concentration for half-maximal inhibition (IC50) is 0.02 to 0.5 µM.

In the case of `CC(C)Nc1nc2c(N3CCc4ccccc4C3)ncnc2n1[C@@H]1O[C@H](C)[C@@H](O)[C@H]1O` [Compound 212], the concentration for half-maximal inhibition (IC50) is 0.02 to 0.5 µM.

Turning to `C[C@H]1O[C@@H](n2cnc3c(N4CCC(c5ccc([N+](=O)[O-])cc5)CC4)ncnc32)[C@H](O)[C@@H]1O` [Compound 213], the concentration for half-maximal inhibition (IC50) was 0.02 to 0.5 µM.

Turning to `C[C@H]1C[C@@H](n2cnc3c(SCc4ccc([N+](=O)[O-])cc4)ncnc32)[C@H](O)[C@@H]1O` [Compound 214], the 50% inhibitory concentration (IC50) lay within 0.02 to 0.5 µM.

For the compound `C[C@H]1O[C@@H](n2c(N)nc3c(OCCc4ccc([N+](=O)[O-])cc4)ncnc32)[C@H](O)[C@@H]1O` [Compound 215], the 50% inhibitory concentration (IC50) was in the range of 0.02 to 0.5 µM.

Consider `O=[N+]([O-])c1ccc(CSc2ncnc3c2ncn3[C@@H]2O[C@H](CO)C[C@H]2O)cc1` [Compound 216], for which the half-inhibitory concentration (IC50) was in the range of 0.02 to 0.5 µM.

In the case of `C[C@H]1O[C@@H](n2cnc3c(OCc4cc(Cl)cc(Cl)c4)ncnc32)[C@H](O)[C@@H]1O` [Compound 217], the concentration for half-maximal inhibition (IC50) was 0.02 to 0.5 µM.

On to `O=[N+]([O-])c1ccc(COc2ncnc3c2ncn3[C@@H]2O[C@H](CCCO)[C@@H](O)[C@H]2O)cc1` [Compound 218], for which the 50% inhibitory concentration (IC50) was in the range of 0.02 to 0.5 µM.

Take `CCOC(=O)CC[C@H]1O[C@@H](n2cnc3c(OCc4ccc([N+](=O)[O-])cc4)ncnc32)[C@H](O)[C@@H]1O` [Compound 219]: the half-maximal inhibitory concentration (IC50) is > 0.5 µM.

Consider `O=[N+]([O-])c1ccc(COc2ncnc3c2ncn3[C@@H]2O[C@H](CO)[C@@H](O)C2(F)F)cc1` [Compound 220], for which the half-maximal inhibitory concentration (IC50) is > 0.5 µM.

For the compound `C[C@H]1O[C@@H](n2cnc3c(OCc4cccc(C#N)c4)ncnc32)[C@H](O)[C@@H]1O` [Compound 221], the half-maximal inhibitory concentration (IC50) was > 0.5 µM.

Regarding `C[C@H]1O[C@@H](n2cnc3c(OCc4ccc([N+](=O)[O-])cc4)nc(Cl)nc32)[C@H](O)[C@@H]1O` [Compound 222], the IC50 is > 0.5 µM.

Regarding `C[C@H]1O[C@@H](n2cnc3c(OCCc4cc(F)c(C#N)c(F)c4)ncnc32)[C@H](O)[C@@H]1O` [Compound 223], the 50% inhibitory concentration (IC50) is > 0.5 µM.

Consider `C[C@H]1O[C@@H](n2cnc3c(OCc4ccc([N+](=O)[O-])cc4)nc(F)nc32)[C@H](O)[C@@H]1O` [Compound 225], for which the half-inhibitory concentration (IC50) was > 0.5 µM.

As to `C[C@H]1O[C@@H](n2cnc3c(OCc4ccc(Cl)c(Cl)c4)ncnc32)[C@H](O)[C@@H]1O` [Compound 226], the IC50 was > 0.5 µM.

Turning to `C[C@H]1O[C@@H](n2cnc3c(C4CCc5ccc([N+](=O)[O-])cc5C4)ncnc32)[C@H](O)[C@@H]1O` (some centres unmarked) [Compound 227], the IC50 is > 0.5 µM.
